Laboratory results: patent US9849130B2 (KamTek, Inc., priority 2014, dated 2017)
In brackets after ≈: the same amount, converted by molar mass.

Legend:
Enterococci faecium = test: MIC by microdilution in Mueller-Hinton broth against Enterococci faecium strains; assay type: cell-based, Enterococcus faecium; conditions: Mueller-Hinton broth
Bacteroides Strains = test: MIC by microdilution in Brucella broth against Bacteroides strains; assay type: cell-based, Bacteroides spp.
Escherichia coli strains = test: MIC by microdilution in Mueller-Hinton broth against Escherichia coli strains; assay type: cell-based; conditions: for MIC: Mueller-Hinton broth
[1] = test system: Staphylococcus aureus strains; test: MIC by microdilution in Mueller-Hinton broth against Staphylococcus aureus strains; assay type: cell-based
Fusobacterium = test: MIC by microdilution in Brucella broth against Fusobacterium; assay type: cell-based, Fusobacterium spp.; conditions: Brucella broth
C. perfringens MH310 = test: microbe, parasite or virus in culture; assay type: cell-based; conditions: C. perfringens MH310
[2] = test system: Lachnospiraceae and related bacterial strains; test: MIC against Lachnospiraceae and related bacterial strains; assay type: cell-based, Lachnospiraceae spp.; conditions: broth microdilution, brucella broth
Lactobacillus strains = test: MIC against Lactobacillus strains; assay type: cell-based, Lactobacillus spp.; conditions: broth microdilution, BHI with 0.02% Tween 80, pH 6.0
Enterococcus faecalis = test: MIC by microdilution in Mueller-Hinton broth against Enterococcus faecalis strains; assay type: cell-based

Structure (SMILES): CCN=c1cc2n(-c3cccc(C(F)(F)F)c3)c3ccccc3nc-2cc1Nc1cccc(C(F)(F)F)c1 [B4129]
- MIC (Enterococci faecium; E. faecium NR 31903): >32 µg/mL
- MIC (Enterococci faecium; E. faecium NR 31909): >32 µg/mL
- MIC (Enterococci faecium; E. faecium NR 31912): >32 µg/mL
- MIC (Enterococci faecium; E. faecium NR 31915): >32 µg/mL
- MIC (Enterococci faecium; E. faecium NR 31916): >32 µg/mL
- MIC (Bacteroides Strains; B. caccae HM728): 2 µg/mL (≈ 3.8 µM)
- MIC (Bacteroides Strains; B. eggerthii HM210): 2 µg/mL (≈ 3.8 µM)
- MIC (Bacteroides Strains; B. fragilis HM709): 2 µg/mL (≈ 3.8 µM)
- MIC (Bacteroides Strains; B. fragilis HM710): 2 µg/mL (≈ 3.8 µM)
- MIC (Bacteroides Strains; B. fragilis HM714): 4 µg/mL (≈ 7.6 µM)
- MIC (Bacteroides Strains; B. ovatus HM222): 0.25 µg/mL (≈ 0.475 µM)
- MIC (Bacteroides Strains; B. spp. HM18): 16 µg/mL (≈ 30.4 µM)
- MIC (Bacteroides Strains; B. spp. HM19): 0.5 µg/mL (≈ 0.95 µM)
- MIC (Bacteroides Strains; B. spp. HM20): 2 µg/mL (≈ 3.8 µM)
- MIC (Bacteroides Strains; B. spp. HM22): 2 µg/mL (≈ 3.8 µM)
- MIC (Bacteroides Strains; B. spp. HM23): 16 µg/mL (≈ 30.4 µM)
- MIC (Bacteroides Strains; B. spp. HM27): 1 µg/mL (≈ 1.9 µM)
- MIC (Bacteroides Strains; B. spp. HM28): 2 µg/mL (≈ 3.8 µM)
- MIC (Bacteroides Strains; B. spp. HM58): 2 µg/mL (≈ 3.8 µM)
- MIC (Bacteroides Strains; B. stercoris HM1036): 0.25 µg/mL (≈ 0.475 µM)
- activity against E. coli (in words) (Escherichia coli strains): relatively inactive
- MIC (Escherichia coli strains; Escherichia coli strain NR 6): >32 µg/mL
- MIC (Escherichia coli strains; Escherichia coli strain NR 8): >32 µg/mL
- MIC (Escherichia coli strains; Escherichia coli strain NR 96): >32 µg/mL
- MIC (Escherichia coli strains; Escherichia coli strain NR 104): >32 µg/mL
- MIC (Escherichia coli strains; Escherichia coli strain NR 17626): >32 µg/mL
- MIC (Escherichia coli strains; Escherichia coli strain NR 17627): >32 µg/mL
- MIC (Escherichia coli strains; Escherichia coli strain NR 17633): >32 µg/mL
- MIC (Escherichia coli strains; Escherichia coli strain NR 17647): >32 µg/mL
- MIC (Escherichia coli strains; Escherichia coli strain NR 17650): >32 µg/mL
- MIC (Escherichia coli strains; Escherichia coli strain NR 17661): >32 µg/mL
- MIC ([1]; Staphylococcus aureus strain NR 10129): 32 µg/mL (≈ 60.8 µM)
- MIC ([1]; Staphylococcus aureus strain NR 10186): >32 µg/mL
- MIC ([1]; Staphylococcus aureus strain NR 10187): >32 µg/mL
- MIC ([1]; Staphylococcus aureus strain NR 10188): >32 µg/mL
- MIC ([1]; Staphylococcus aureus strain NR 10189): >32 µg/mL
- MIC ([1]; Staphylococcus aureus strain NR 10191): >32 µg/mL
- MIC ([1]; Staphylococcus aureus strain NR 10192): >32 µg/mL
- MIC ([1]; Staphylococcus aureus strain NR 10193): >32 µg/mL
- MIC ([1]; Staphylococcus aureus strain NR 10194): 32 µg/mL (≈ 60.8 µM)
- MIC ([1]; Staphylococcus aureus strain NR 10198): >32 µg/mL
- MIC (Fusobacterium; F. nucleatum HM-75): >32 µg/mL
- MIC (Fusobacterium; F. nucleatum HM-260): >32 µg/mL
- MIC (Fusobacterium; F. nucleatum HM-992): >32 µg/mL
- MIC (Fusobacterium; F. nucleatum HM-993): 8 µg/mL (≈ 15.2 µM)
- MIC (Fusobacterium; F. nucleatum HM-994): >32 µg/mL
- MIC (Fusobacterium; F. nucleatum HM-995): >32 µg/mL
- MIC (Fusobacterium; F. nucleatum HM-996): >32 µg/mL
- MIC (Fusobacterium; F. nucleatum HM-997): >32 µg/mL
- MIC (Fusobacterium; Fusobacterium sp. HM 42): >32 µg/mL
- MIC (Fusobacterium; Fusobacterium sp. HM 57): >32 µg/mL
- MIC (Fusobacterium; Fusobacterium sp. HM-556): >32 µg/mL
- MIC (Fusobacterium; Fusobacterium sp. HM-758): >32 µg/mL
- MIC (Fusobacterium; Fusobacterium sp. HM-871): >32 µg/mL
- MIC (Fusobacterium; Fusobacterium sp. HM-874): >32 µg/mL
- MIC (Fusobacterium; Fusobacterium sp. HM-875): >32 µg/mL
- MIC (C. perfringens MH310; BB): 0.25 µg/mL (≈ 0.475 µM)
- MIC (C. perfringens MH310; BHI): 2 µg/mL (≈ 3.8 µM)
- MIC ([2]; Clostridiales bacterium HM-84): ≦0.031 μg/ml
- MIC ([2]; Clostridiales bacterium HM-182): 0.125 µg/mL (≈ 0.237 µM)
- MIC ([2]; Eubacterium sp. HM-178): 0.125 µg/mL (≈ 0.237 µM)
- MIC ([2]; Lachnospiraceae sp. HM-7): ≦0.031 μg/ml
- MIC ([2]; Lachnospiraceae sp. HM-150): 0.125 µg/mL (≈ 0.237 µM)
- MIC ([2]; Lachnospiraceae sp. HM-153): 0.125 µg/mL (≈ 0.237 µM)
- MIC ([2]; Lachnospiraceae sp. HM-154): 0.125 µg/mL (≈ 0.237 µM)
- MIC ([2]; Lachnospiraceae sp. HM-157): 0.25 µg/mL (≈ 0.475 µM)
- MIC ([2]; Lachnospiraceae sp. HM-161): 0.125 µg/mL (≈ 0.237 µM)
- MIC ([2]; Lachnospiraceae sp. HM-480): 0.062 µg/mL (≈ 0.118 µM)
- MIC ([2]; Lachnospiraceae sp. HM-558): 0.125 µg/mL (≈ 0.237 µM)
- MIC ([2]; Lachnospiraceae sp. HM-768): ≦0.031 μg/ml
- MIC ([2]; Lachnospiraceae sp. HM-868): >32 µg/mL
- MIC ([2]; Peptostreptococcaceae sp. HM-766): 0.5 µg/mL (≈ 0.95 µM)
- MIC (Lactobacillus strains; Lactobacillus crispatus HM-637): 16 µg/mL (≈ 30.4 µM)
- MIC (Lactobacillus strains; Lactobacillus gasseri HM-104): >32 µg/mL
- MIC (Lactobacillus strains; Lactobacillus iners HM-126): 1 µg/mL (≈ 1.9 µM)
- MIC (Lactobacillus strains; Lactobacillus jensenii HM-105): >32 µg/mL
- MIC (Lactobacillus strains; Lactobacillus jhonsonii HM-643): >32 µg/mL
- MIC (Lactobacillus strains; Lactobacillus reuteri HM-102): >32 µg/mL
- MIC (Lactobacillus strains; Lactobacillus rhamnosus HM-106): >32 µg/mL
- MIC (Lactobacillus strains; Lactobacillus sp. HM-228): 1 µg/mL (≈ 1.9 µM)
- MIC (Lactobacillus strains; Lactobacillus sp. HM-478): >32 µg/mL
- MIC (Lactobacillus strains; Lactobacillus vaginalis HM-405): 2 µg/mL (≈ 3.8 µM)
- MIC (Enterococcus faecalis; E. faecalis NR 31884): >32 µg/mL
- MIC (Enterococcus faecalis; E. faecalis NR 31885): >32 µg/mL
- MIC (Enterococcus faecalis; E. faecalis NR 31886): >32 µg/mL
- MIC (Enterococcus faecalis; E. faecalis NR 31887): >32 µg/mL
- MIC (Enterococcus faecalis; E. faecalis NR 31888): >32 µg/mL
